From US20170051149A1, “AZOARYLS AS REVERSIBLY MODULATABLE TUBULIN INHIBITORS” (ECOLE NORMALE SUPERIEURE DE LYON, priority 2014, published 2017)
Read-outs that look alike come from different tables or passages of the source.

Key:
Type in all cases: cell-based
MDA-MB-231 cells [1] = assay: nuclear fragmentation (subG1, Nicoletti), induction of apoptosis; conditions: for EC50: Homo sapiens, MDA-MB-231, 48 h, read-out: EC50, 50% increase of the subG1 population percentage
Experimental: (§1) Different cell types, including MDA-MB-231, Jurkat, HeLa and HepG2 cells, were treated with indicated concentrations of compound I.1 and exposed to a 390 nm toxic regime, a rescue regime with both 390 nm and 515 nm light, or kept in the dark. Following the treatment, cells were stained with PI and the percentage of cells containing a hypodiploid amount of DNA (subG1 phase of cell cycle), was determined. Briefly, prior to analysis, cells were harvested on ice and incubated in a hypotonic buffer [0.1% sodium citrate, 0.1% Triton X-100 and 50 μg/mL propidium iodide (PI)] for 30 min at 4° C. Following the PI staining cells were analysed by flow cytometry using FACSCalibur flow cytometer (Becton Dickinson, Heidelberg, Germany) and Cell Quest Pro Software (Becton Dickinson).

Jurkat cells = assay: as above; conditions: 48 h
Experimental: as §1

MDA-MB-231 cells [2] = assay: in cellulo tubulin imaging, immunostaining of microtubule cytoskeleton; conditions: 20 h; for effect on microtubule structure: 390 nm regimen (200 ms every 2 min)
Experimental: In order to investigate the influence of compound I.1 on microtubule structure in cellulo, immunostaining of the microtubule cytoskeleton in MDA-MB-231 cells was performed. Cells were treated with compound I.1 and then kept in dark conditions, or exposed to 390 nm light (200 ms every 2 min), or exposed to a rescue protocol with sequential pulses of 390 nm light (200 ms every 2 min) then immediately 505 nm (600 ms every 2 min). After 20 h of treatment cells were fixed, stained and subjected to confocal microscopy.
Briefly, prior to analysis, cells were washed with pre-warmed PBS then cell extraction buffer (80 mM piperazine-N,N′-bis(2-ethanesulfonic acid) [abbreviated PIPES], 1 mM MgCl2, 5 mM EGTA-K and 0.5% Triton X-100, at pH 6.8) was added to remove monomeric and dimeric tubulin subunits. After 30 s of extraction, cells were fixed for 10 min with 0.5% glutaraldehyde. Following glutaraldehyde quenching with 0.1% NaBH4 in PBS for 7 min, coverslips were blocked with PBS containing 0.2% BSA (bovine serum albumin). Immunostaining was performed using anti-α-tubulin antibody (ab18251) and the AlexaFluor 488 secondary antibody (A 11008), purchased from Abcam (Cambridge, UK) and Invitrogen (Darmstadt, Germany), respectively. Hoechst 33342 (bisbenzimide), purchased from Sigma-Aldrich (catalogue number B2261; Taufkirchen, Germany), was used at a concentration of 1 ug/ml for nuclear staining. Cells were mounted with PermaFluor™ mounting medium (Beckman Coulter) and analyzed with a Zeiss LSM 510 Meta confocal microscope (Jena, Germany). Acquired images were processed using the ImageJ program (National Institutes of Health) and representative images are collected in FIG. 7.

SMILES: COc1ccc(N=Nc2cc(OC)c(OC)c(OC)c2)cc1O [I.1, 2-methoxy-5-((3,4,5-trimethoxyphenyl)diazenyl)phenol]
- mean % subG1 phase (MDA-MB-231 cells [1]; 1.2 μM, 390 nm (350 ms every 5 min), 48 h): 56.6%
- mean % subG1 phase (MDA-MB-231 cells [1]; 1.2 μM, DARK, 48 h): 3.6%
- mean % subG1 phase (MDA-MB-231 cells [1]; 1.5 μM, 390 nm (350 ms every 5 min), 48 h): 76.1%
- mean % subG1 phase (MDA-MB-231 cells [1]; 1.5 μM, DARK, 48 h): 3.3%
- mean % subG1 phase (MDA-MB-231 cells [1]; 2 μM, MDA-MB-231, 390 nm only (150 ms pulse every 30 s), 48 h): 35.4%
- mean % subG1 phase (MDA-MB-231 cells [1]; 2 μM, MDA-MB-231, rescue protocol 390 nm + 515 nm (500 ms), 48 h): 25.0%
- mean % subG1 phase (MDA-MB-231 cells [1]; 3 μM, 390 nm (350 ms every 5 min), 48 h): 79.0%
- mean % subG1 phase (MDA-MB-231 cells [1]; 3 μM, dark, 48 h): 6.0%
- mean % subG1 phase (MDA-MB-231 cells [1]; 6 μM, 390 nm (350 ms every 5 min), 48 h): 83.5%
- mean % subG1 phase (MDA-MB-231 cells [1]; 6 μM, DARK, 48 h): 3.9%
- mean % subG1 phase (MDA-MB-231 cells [1]; 10 μM, MDA-MB-231, dark, 48 hours): 2.0%
- mean % subG1 phase (MDA-MB-231 cells [1]; 15 μM, 390 nm (350 ms every 5 min), 48 h): 83.7%
- mean % subG1 phase (MDA-MB-231 cells [1]; 15 μM, DARK, 48 h): 5.4%
- mean % subG1 phase (MDA-MB-231 cells [1]; 50 μM, MDA-MB-231, dark, 48 hours): 4.5%
- mean % subG1 phase (MDA-MB-231 cells [1]; 75 μM, MDA-MB-231, dark, 48 hours): 7.9%
- mean % subG1 phase (MDA-MB-231 cells [1]; 85 μM, MDA-MB-231, dark, 48 hours): 12.7%
- mean % subG1 phase (MDA-MB-231 cells [1]; 100 μM, MDA-MB-231, dark, 48 hours): 26.8%
- mean % subG1 phase (MDA-MB-231 cells [1]; 125 μM, MDA-MB-231, dark, 48 hours): 51.1%
- mean % subG1 phase (MDA-MB-231 cells [1]; 150 μM, MDA-MB-231, dark, 48 hours): 92.2%
- mean % subG1 phase (MDA-MB-231 cells [1]; 175 μM, MDA-MB-231, dark, 48 hours): 95.7%
- mean % subG1 phase (MDA-MB-231 cells [1]; 200 μM, MDA-MB-231, dark, 48 hours): 95.5%
- EC50 (MDA-MB-231 cells [1]; 390 nm regimen, 48 h): ~1 µM
- EC50 (MDA-MB-231 cells [1]; in the dark, 48 h): ~120 µM
- mean % subG1 phase (Jurkat cells; 5 nM, 390 nm (350 ms pulses every 5 min)): 2.7%
- mean % subG1 phase (Jurkat cells; 5 nM, dark): 3.0%
- mean % subG1 phase (Jurkat cells; 50 nM, 390 nm (350 ms pulses every 5 min)): 4.9%
- mean % subG1 phase (Jurkat cells; 50 nM, dark): 3.4%
- mean % subG1 phase (Jurkat cells; 100 nM, 390 nm (350 ms pulses every 5 min)): 9.1%
- mean % subG1 phase (Jurkat cells; 100 nM, dark): 3.5%
- mean % subG1 phase (Jurkat cells; 150 nM, 390 nm (350 ms pulses every 5 min)): 18.5%
- mean % subG1 phase (Jurkat cells; 150 nM, dark): 3.3%
- mean % subG1 phase (Jurkat cells; 200 nM, 390 nm (350 ms pulses every 5 min)): 49.7%
- mean % subG1 phase (Jurkat cells; 200 nM, dark): 3.0%
- mean % subG1 phase (Jurkat cells; 400 nM, 390 nm (350 ms pulses every 5 min)): 88.5%
- mean % subG1 phase (Jurkat cells; 400 nM, dark): 4.4%
- mean % subG1 phase (Jurkat cells; 800 nM, 390 nm (350 ms pulses every 5 min)): 89.5%
- mean % subG1 phase (Jurkat cells; 800 nM, dark): 5.5%
- mean % subG1 phase (Jurkat cells; 1.5 μM, 390 nm (350 ms pulses every 5 min)): 89.6%
- mean % subG1 phase (Jurkat cells; 1.5 μM, dark): 7.9%
- mean % subG1 phase (Jurkat cells; 5 μM, 390 nm (350 ms pulses every 5 min)): 91.0%
- mean % subG1 phase (Jurkat cells; 5 μM, dark): 12.0%
- effect on microtubule structure (MDA-MB-231 cells [2]; 1.5 μM): degradation of the microtubule cytoskeleton
- effect on microtubule structure (MDA-MB-231 cells [2]; 4 μM): complete microtubule breakdown plus fragmentation of the nuclei
- nuclear fragmentation and microtubule destruction (MDA-MB-231 cells [2]; kept in the dark): not observed
- effect of rescue protocol on signs of cytotoxic effects (MDA-MB-231 cells [2]; rescue: 390 nm (200 ms) then 505 nm (600 ms) every 2 min): dose-dependent reduction of the signs of cytotoxic effects
